Experimental data reported in patent US9060997B2, “Antifolate compounds for the treatment of melanoma” (UNIVERSIDAD DE MURCIA, priority 2007, dated 2015).

Tests used:
DHFR mRNA and protein = experiment: DHFR mRNA (real-time PCR) and protein in SkMel-28; format: cell-based, human; settings: SkMel-28, 50 μM
Protocol: Data were obtained by real time PCR and compared with the relative expression of DHFR in HeM cells (zero relative gene expression). Zero time represents the level of DHFR in untreated SkMel-28 cells.
cDNA samples (1 μL) were used for real-time PCR in a total volume of 20 μL using SYBR Green Reagent (Applied Biosystems) and specific primers on a 7500 Real Time PCR System of Applied Biosystems. The PCR amplification cycles included denaturation 95° C., 15 min; to activate HotStar Taq DNA polymerase and to minimize primer-dimer contribution), and amplification [over 40-50 cycles including denaturation (94° C.; 30 s), annealing (55° C.; 30 s), and extension (72° C.; 1 min)]. All PCR reactions were performed in triplicate and from at least two independent experiments. Non-RT control and negative control samples (without template) were processed in the same manner. […] Amplification of target gene sequences were compared against serial dilutions of know quantities of their purified cDNA fragments, and normalized to the abundance of the house-keeping gene β-actin.
Protein lysates were prepared from specified cells, separated by SDS-polyacrylamide gel electrophoresis (PAGE), transferred to nitrocellulose membranes, and analyzed by immunoblotting. […] Bound antibodies were detected by chemiluminiscence (ECL Plus, GE Healthcare). […]

rHDHFR = molecular target: T1, rHDHFR (Homo sapiens, UniProt P00374); experiment: rHDHFR inhibition, progress curves; format: biochemical
T1 construct: purchased Sigma
T1 sequence (P00374 1-187): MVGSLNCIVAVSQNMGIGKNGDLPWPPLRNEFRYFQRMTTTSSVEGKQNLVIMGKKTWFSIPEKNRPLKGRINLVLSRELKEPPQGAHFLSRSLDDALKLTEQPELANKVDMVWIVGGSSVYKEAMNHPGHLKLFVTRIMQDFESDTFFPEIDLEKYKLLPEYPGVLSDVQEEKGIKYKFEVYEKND
Protocol: The experiments were carried out in the same buffer as fluorescence experiments in the presence of NADPH (100 μM), DHF (10 μM), and rHDHFR (1.5 nM).
The activity of rHDHFR was determined at 25° C. by following the decrease in the absorbance of NADPH and DHF at 340 nm (ε=11800 M-1 cm−1) (Stone and Morrison, 1986). Progress curves were obtained under ordered conditions ([NADPH]>>[DHF]). rHDHFR inhibition constants were calculated as described by Navarro-Perán et al., 2005b. The dissociation constant for the binding of inhibitors to free rHDHFR was determined at 25° C. by fluorescence titration in an automatic-scanning Perkin-Elmer LS50B spectrofluorimeter. Fluorescence emission spectra were recorded when rHDHFR fluorescence was excited at 290 nm. Stopped-flow fluorescence experiments were carried out using an Applied Photophysics Ltd. Pi-Star 180 spectrometer with a stopped-flow unit at 25° C.

SkMel-28 cells = experiment: MTT cell proliferation assay, SkMel-28; format: cell-based, human
Protocol: (§1) Four human cancer cells lines (SkMel-28, MCF7, H1264 and Caco-2) were obtained from the American Type Tissue Culture Collection (ATCC) and were maintained in appropriate culture mediums supplemented with 10% fetal calf serum (FCS) and antibiotics, under standard tissue culture conditions (e.g. modified Eagle's medium (MEM) containing 1 mM sodium pyruvate and 10% fetal bovine serum (FES) under 5% CO2/95% air atmosphere.). Cell injury was evaluated by a colorimetric assay for mitochondrial function using the 3-(4,5-dimethylthiazolyl-2)-2,5-diphenyltetrazolium bromide (MTT) cell proliferation assay. For this assay cells were plated in a 96-well plate at a density of 1000 cells/well and grown until they reached 50-60% confluence. Human epidermal melanocytes (HeM) were supplied by Gentaur and were cultured in HAM-F10 medium supplemented with 10% FCS, antibiotics and the human melanocyte growth supplement (Gentaur).
Cell injury was evaluated by a colorimetric assay for mitochondrial function using the 3-(4,5-dimethylthiazolyl-2)-2,5-diphenyltetrazolium bromide (MTT) cell proliferation assay. For this assay cells were plated in a 96-well plate at a density of 1000 cells/well and grown until they reached 30% confluence. Co-treatments of SkMel-28 cells with TMECG and other reagents were carried out by supplementing medium cultures with S-adenosylmethionine (SAM), adenosine or dipyridamole (all from Sigma).

Caco-2 cells = experiment: MTT cell proliferation assay, Caco-2; format: cell-based, human; settings: Homo sapiens, 144 h; Caco-2, 6 days of treatment
Protocol: as §1

[1] = tested on: MS, MAT1A, MAT2A, AHYC and DNMT1 mRNA; experiment: Methionine cycle and methylase gene expression in SkMel-28 (real-time PCR); format: cell-based, human
From the text: Histograms compare the estimated relative levels of the mRNA with respect to that of β-actin. Values represent the number of copies of mRNA per each 1×10^6 copies of β-actin.
Primers were designer using Primer Express version 2.0 software (Applied Biosystems, Foster City, Calif.) and synthesized by Invitrogen. The sequence of the primers are as follow: MS (forward: 5′-[…]-[…]-3′; […]; MAT1A (forward: 5′-[…]-[…]; […]; The primers designed to amplify FRα cDNA were: FR1 (forward: 5′-[…]-[…]-3′); […]; cDNA samples (1 μL) were used for real-time PCR in a total volume of 20 μL using SYBR Green Reagent (Applied Biosystems) and specific primers on a 7500 Real Time PCR System of Applied Biosystems. The PCR amplification cycles included denaturation 95° C., 15 min; to activate HotStar Taq DNA polymerase and to minimize primer-dimer contribution), and amplification [over 40-50 cycles including denaturation (94° C.; 30 s), annealing (55° C.; 30 s), and extension (72° C.; 1 min)]. All PCR reactions were performed in triplicate and from at least two independent experiments. Non-RT control and negative control samples (without template) were processed in the same manner. The specificity of the amplification was verified by melting curve analysis for all samples, and occasionally by agarosa gel electrophoresis. Amplification of target gene sequences were compared against serial dilutions of know quantities of their purified cDNA fragments, and normalized to the abundance of the house-keeping gene β-actin.

[2] = SkMel-28, 50 μM, five days, versus untreated SkMel-28

Which results are given for `COc1cc(C(=O)O[C@@H]2Cc3c(O)cc(O)cc3O[C@@H]2c2ccc(O)c(O)c2)cc(OC)c1OC` [TMECG, 3-O-(3,4,5-trimethoxybenzoyl)-(−)-epicatechin]?
DHFR mRNA and protein level (DHFR mRNA and protein): reduced DHFR mRNA and protein to normal levels; Decrease % further EI reactions (rHDHFR; decrease of KI to KI* by further EI-complex reactions): 19 −fold; Ki (rHDHFR; read-out: effective inhibition constant (KI*)): 110 nM; effect of leucovorin co-treatment on growth inhibition (SkMel-28 cells; 100 μM leucovorin, MTX 1 μM or TMECG 50 μM, 3 days): did not; inhibition at 50 µM (SkMel-28 cells; Homo sapiens, SK-MEL-28, 120 h, 50 μM, five days of treatment, read-out: growth of SkMel-28 inhibited): > 60%; IC50 (SkMel-28 cells; Homo sapiens, SK-MEL-28, 144 h, SkMel-28, 6 days of treatment, read-out: IC50 (at 6 days)): 2900 nM; effect of natural and synthetic catechins on SkMel-28 growth (SkMel-28 cells; SkMel-28): highly inhibited; DNA fragmentation (apoptosis) (SkMel-28 cells; SkMel-28, 50 μM, 7 days): visible after treatment; effect of sulfasalazine (RFC inhibitor) on antiproliferative action (SkMel-28 cells; sulfasalazine 0.5 mM, MTX 0.2 μM or TMECG 10 μM, 3 days): enhancing TMECG antiproliferative activity; IC50 (Caco-2 cells): 33000 nM; level of MAT1A mRNA [1, 2]: essentially the some; level of MAT2A mRNA [1, 2]: slightly but significant increase; DNMT1 mRNA ([1]; SkMel-28, treated cells): recovered normal levels
